The term inhibition denotes the drop in the measured response relative to a control, in per cent. Low values mean little suppression, high ones strong suppression. Broadly, the GI50 is the concentration giving 50% growth inhibition. In general, IC50 refers to the concentration that gives 50% inhibition. By clearance is commonly meant the volume of plasma or blood freed of the substance per unit of time. In general, AUC(0-inf) refers to total exposure, with the tail of the curve extrapolated. Higher therefore signals high exposure. By AUC(0-t) is commonly meant the area under the concentration-time curve up to a stated or last time point. A higher AUC(0-t) goes with more exposure.

Series [1] has as its target T1, Adenosine receptor A3 (Homo sapiens) (UniProt P0DMS8).
T1 sequence (whole entry): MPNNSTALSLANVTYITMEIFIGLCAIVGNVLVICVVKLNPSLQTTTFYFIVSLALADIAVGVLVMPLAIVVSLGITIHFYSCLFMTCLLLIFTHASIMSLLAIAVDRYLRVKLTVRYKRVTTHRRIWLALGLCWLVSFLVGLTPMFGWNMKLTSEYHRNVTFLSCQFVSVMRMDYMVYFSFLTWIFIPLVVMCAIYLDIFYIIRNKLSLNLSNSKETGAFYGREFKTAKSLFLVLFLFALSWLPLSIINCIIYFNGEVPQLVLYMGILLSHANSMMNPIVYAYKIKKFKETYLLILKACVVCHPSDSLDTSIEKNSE
Briefly: Inhibition of adenosine A3 receptor (unknown origin) at 10 uM relative to control.

Another series has as its system NCI-H292. Kind of series: Antiproliferative activity against human NCI-H292 cells assessed as cell growth inhibition. The format is functional.
Series [2] can be described thus: Toxicity in Balb/c nude mouse allografted with mouse BaF3 cells harboring EGFR L858R/C797S mutant assessed as change in body weight at 10 mg/kg, po administered twice daily for 20 days. The series is classed as organism-based. As to conditions: in vivo, 480 h, time 20 day.
For another series, the system named is NCI-H1975. Briefly: Antitumor activity against human NCI-H1975 cells harboring EGFR L858R/T790M mutant xenografted in Balb/c nude mouse assessed as in tumor growth inhibition at 10 mg/kg, po administered once daily measured after 14 days in presence of osimertinib. The series is classed as functional. As to conditions: NCI-H1975, 336 h, time 14 day, read-out: TGI. (A xenograft is tissue or cells of one species grown in another, often human tumour cells in immunodeficient mice.)

Series [3] has as its target Angiotensin-converting enzyme (Homo sapiens, UniProt P12821). Briefly: Inhibition of angiotensin converting enzyme (unknown origin) at 10 uM relative to control.
The target of series [4] is Epidermal growth factor receptor (Homo sapiens, UniProt P00533, C797S/L858R).
The nature of series [5]: Clearance in CD1 mouse at 1 mg/kg, iv administered as single dose measured after 24 hrs by LC-MS/MS analysis. The series is classed as ADME, organism-based. The following applies: in vivo.
A short description of series [6]: Toxicity in Balb/c nude mouse xenografted with human NCI-H1975 cells harboring EGFR L858R/T790M mutant assessed as change in body weight at 10 mg/kg, po administered twice daily measured after 14 days. The series is classed as organism-based. The following applies: in vivo, 336 h, time 14 day.
Series [7] is described as follows: Volume of distribution at steady state in CD1 mouse at 1 mg/kg, iv administered as single dose measured after 24 hrs by LC-MS/MS analysis. The following applies: in vivo, read-out: Vdss. The format is ADME, organism-based.
The target of series [8] is T2, Muscarinic acetylcholine receptor M2 (Homo sapiens, UniProt P08172).
T2 sequence (P08172 whole entry): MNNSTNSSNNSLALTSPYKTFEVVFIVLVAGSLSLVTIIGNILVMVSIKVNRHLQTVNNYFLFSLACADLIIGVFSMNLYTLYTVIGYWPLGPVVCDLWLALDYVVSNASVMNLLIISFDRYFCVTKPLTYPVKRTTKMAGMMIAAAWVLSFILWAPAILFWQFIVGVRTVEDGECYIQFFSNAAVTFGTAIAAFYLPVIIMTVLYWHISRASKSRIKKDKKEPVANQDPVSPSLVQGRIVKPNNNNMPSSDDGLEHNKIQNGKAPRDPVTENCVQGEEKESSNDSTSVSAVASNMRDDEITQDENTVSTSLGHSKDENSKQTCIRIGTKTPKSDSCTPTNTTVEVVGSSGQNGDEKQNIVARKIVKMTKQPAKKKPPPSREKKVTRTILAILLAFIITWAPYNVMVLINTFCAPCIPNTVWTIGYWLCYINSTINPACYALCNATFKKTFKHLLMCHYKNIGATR
Briefly: Inhibition of muscarinic M2 receptor (unknown origin).

Series [9] can be described thus: Terminal half life in CD1 mouse at 1 mg/kg, iv administered as single dose measured after 24 hrs by LC-MS/MS analysis. The format is ADME, organism-based. The following applies: in vivo, read-out: beta t1/2 (converted).
Series [10] can be described thus: AUC (0 to infinity) in CD1 mouse at 1 mg/kg, iv administered as single dose measured after 24 hrs by LC-MS/MS analysis. The series is classed as ADME, organism-based. On the set-up: time 24 hrs, dose 1 mg/kg, route iv. As to conditions: in vivo.
A short description of series [11]: AUC(0 to t) in CD1 mouse at 1 mg/kg, iv administered as single dose measured after 24 hrs by LC-MS/MS analysis. The format is ADME, organism-based. The arrangement: time 24 hrs, dose 1 mg/kg, route iv. The following applies: in vivo.

Epidermal growth factor receptor, sequence (P00533 25-1210 C797S/L858R limits assumed): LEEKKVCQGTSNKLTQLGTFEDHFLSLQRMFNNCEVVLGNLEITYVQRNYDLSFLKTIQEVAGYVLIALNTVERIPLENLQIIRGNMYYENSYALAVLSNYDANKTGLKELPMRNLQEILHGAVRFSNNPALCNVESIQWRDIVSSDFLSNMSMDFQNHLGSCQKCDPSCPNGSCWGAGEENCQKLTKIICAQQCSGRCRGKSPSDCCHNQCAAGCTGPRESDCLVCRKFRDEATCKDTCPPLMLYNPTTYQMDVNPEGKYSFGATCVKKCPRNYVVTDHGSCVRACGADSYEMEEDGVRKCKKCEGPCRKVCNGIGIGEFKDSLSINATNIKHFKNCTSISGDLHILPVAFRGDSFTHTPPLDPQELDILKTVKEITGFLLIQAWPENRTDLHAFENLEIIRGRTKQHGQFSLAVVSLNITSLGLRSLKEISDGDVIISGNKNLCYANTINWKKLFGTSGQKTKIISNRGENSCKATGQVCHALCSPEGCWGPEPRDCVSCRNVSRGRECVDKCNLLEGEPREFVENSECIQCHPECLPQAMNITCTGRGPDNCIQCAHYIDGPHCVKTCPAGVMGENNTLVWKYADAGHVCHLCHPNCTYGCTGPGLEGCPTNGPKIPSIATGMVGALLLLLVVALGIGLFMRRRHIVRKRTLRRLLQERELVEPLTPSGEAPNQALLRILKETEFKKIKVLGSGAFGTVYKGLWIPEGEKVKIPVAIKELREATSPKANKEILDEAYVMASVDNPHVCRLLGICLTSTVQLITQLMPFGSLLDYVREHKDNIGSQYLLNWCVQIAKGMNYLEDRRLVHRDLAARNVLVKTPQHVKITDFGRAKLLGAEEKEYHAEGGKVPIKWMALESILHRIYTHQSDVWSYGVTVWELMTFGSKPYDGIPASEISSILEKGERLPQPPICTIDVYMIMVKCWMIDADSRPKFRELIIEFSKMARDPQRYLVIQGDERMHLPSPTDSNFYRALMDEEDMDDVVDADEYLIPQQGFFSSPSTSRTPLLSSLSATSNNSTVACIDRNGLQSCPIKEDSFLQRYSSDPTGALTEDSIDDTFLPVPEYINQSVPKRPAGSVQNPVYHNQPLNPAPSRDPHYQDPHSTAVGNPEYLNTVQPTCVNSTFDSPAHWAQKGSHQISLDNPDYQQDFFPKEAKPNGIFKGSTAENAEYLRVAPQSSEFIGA
Angiotensin-converting enzyme, sequence (P12821 whole entry): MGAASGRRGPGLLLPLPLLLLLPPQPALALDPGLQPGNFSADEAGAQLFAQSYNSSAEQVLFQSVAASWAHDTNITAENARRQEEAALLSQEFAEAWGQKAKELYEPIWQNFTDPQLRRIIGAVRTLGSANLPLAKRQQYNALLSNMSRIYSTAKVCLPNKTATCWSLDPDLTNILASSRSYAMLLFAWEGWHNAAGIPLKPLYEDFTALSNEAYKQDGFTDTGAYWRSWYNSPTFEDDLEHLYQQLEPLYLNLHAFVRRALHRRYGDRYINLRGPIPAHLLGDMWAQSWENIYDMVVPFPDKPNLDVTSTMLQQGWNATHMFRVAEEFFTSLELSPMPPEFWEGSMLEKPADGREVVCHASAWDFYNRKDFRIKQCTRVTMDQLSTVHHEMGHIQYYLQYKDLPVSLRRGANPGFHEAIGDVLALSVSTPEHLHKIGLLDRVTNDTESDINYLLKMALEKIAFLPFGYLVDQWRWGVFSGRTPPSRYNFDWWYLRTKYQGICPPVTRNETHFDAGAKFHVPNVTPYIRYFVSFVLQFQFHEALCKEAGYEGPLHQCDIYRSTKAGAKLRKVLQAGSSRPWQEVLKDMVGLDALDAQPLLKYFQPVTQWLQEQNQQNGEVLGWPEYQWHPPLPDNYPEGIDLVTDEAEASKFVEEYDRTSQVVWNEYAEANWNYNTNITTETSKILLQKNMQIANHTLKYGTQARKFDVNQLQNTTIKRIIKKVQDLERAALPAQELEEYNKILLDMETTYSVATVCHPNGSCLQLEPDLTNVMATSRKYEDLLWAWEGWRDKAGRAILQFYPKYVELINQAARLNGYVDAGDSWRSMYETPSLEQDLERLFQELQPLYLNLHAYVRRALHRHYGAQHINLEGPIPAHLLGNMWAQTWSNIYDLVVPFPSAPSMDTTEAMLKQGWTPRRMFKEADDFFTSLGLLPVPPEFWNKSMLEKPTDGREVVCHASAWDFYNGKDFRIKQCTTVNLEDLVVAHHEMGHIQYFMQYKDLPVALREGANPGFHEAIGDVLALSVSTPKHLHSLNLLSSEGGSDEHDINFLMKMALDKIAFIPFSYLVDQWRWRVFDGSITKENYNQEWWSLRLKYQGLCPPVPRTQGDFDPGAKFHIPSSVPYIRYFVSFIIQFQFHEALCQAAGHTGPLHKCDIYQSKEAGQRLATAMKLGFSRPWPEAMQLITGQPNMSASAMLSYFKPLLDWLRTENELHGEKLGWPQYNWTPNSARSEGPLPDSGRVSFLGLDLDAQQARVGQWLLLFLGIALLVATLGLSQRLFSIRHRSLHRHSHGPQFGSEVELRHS

In the case of `Cc1c(C#Cc2ccc(CN3CCC(CO)CC3)cc2)cc(C(F)F)c2cn(C(C(=O)Nc3nccs3)c3ncn4c3CCC43CC3)nc12` (stereo not drawn), the inhibition is 94% in series [1] and 96% in series [3]. Further, in the series with NCI-H292, the 50% growth inhibitory concentration (GI50) is 350 nM. Also, the Activity result in series [2] and in series [6] was “Non-Toxic” each time. Also, the inhibition in vivo at 10 mg/kg in the series with NCI-H1975 worked out at 100%. Besides, the results for the IC50 in [4] and in [8] were 20 nM and 1800 nM, respectively. In [5], this compound showed a clearance of 20 mL/min/kg. For the same compound, the Vd in series [7] came to 10 L/kg. Further, the half-life in [9] was 6.6 h. For the same compound, the AUC(0-inf) in [10] was determined as 871 ng·h/mL. This compound gave an exposure AUC(0-t) at 24 h in [11] of 803 ng·h/mL.
